Experimental data as given in ChEMBL document CHEMBL5096141, “Protease targeted COVID-19 drug discovery and its challenges: Insight into viral main protease (Mpro) and papain-like protease (PLpro) inhibitors” (Bioorg Med Chem, 2021).

Legend:
[1] = molecular target: T1, Replicase polyprotein 1ab (Severe acute respiratory syndrome coronavirus 2, UniProt P0DTD1); assay: Inhibition of SARS-CoV-2 MPro
[2] = molecular target: T1, Replicase polyprotein 1ab; assay: Inhibition of recombinant SARS-CoV-2 MPro incubated for 10 mins in presence of fluorogenic substrate
[3] = Inhibition of SARS-CoV PLpro expressed in Escherichia coli; design: species or system Severe acute respiratory syndrome-related coronavirus
[4] = Inhibition of recombinant SARS-CoV MPro; design: species or system Severe acute respiratory syndrome-related coronavirus
[5] = Inhibition of recombinant MERS-CoV MPro; design: species or system Middle East respiratory syndrome-related coronavirus
[6] = molecular target: T1, Replicase polyprotein 1ab; assay: Inhibition of SARS-CoV-2 PLpro expressed in Escherichia coli

| SMILES | IC50 [1] [µM] | IC50 [3] [µM] | other results |
| --- | --- | --- | --- |
| O=C[C@@H](C[C@@H]1CCNC1=O)NC(=O)[C@@H](Cc1cccc(F)c1)NC(=O)c1cc2ccccc2[nH]1 | 0.04 | – | IC50 [2]: 0.04 µM |
| Cc1ccccc1C(=O)NC(C)c1ccc2ccccc2c1 (stereo unspecified) | – | 20 | – |
| COc1ccc(CNC(=O)C2CCN(Cc3cccc4ccccc34)CC2)cc1 | – | 59 | – |
| Cc1cccc(C)c1OCC(=O)N[C@@H](Cc1ccccc1)[C@@H](O)C[C@H](Cc1ccccc1)NC(=O)[C@H](C(C)C)N1CCCNC1=O [LOPINAVIR] | > 20 | – | – |
| CN(C)C(=O)COC(=O)Cc1ccc(OC(=O)c2ccc(NC(=N)N)cc2)cc1 [CAMOSTAT] | > 20 | – | – |
| Cc1ccc(N)cc1C(=O)N[C@@H](C)c1cccc2ccccc12 | – | 0.6 | – |
| CC(C)(C)OC(=O)Nc1cccn([C@H](CC2CC2)C(=O)N[C@H](C[C@@H]2CCNC2=O)C(=O)C(=O)NCc2ccccc2)c1=O | – | – | IC50 [4]: 0.9 µM; IC50 [5]: 0.58 µM |
| CC(=O)Nc1ccc(C)c(C(=O)N[C@@H](C)c2cccc3ccccc23)c1 | – | 2.6 | IC50 [6]: 5 µM |
